These results are taken from patent publication US20260365663A1, “EMOPAMIL-BINDING PROTEIN INHIBITORS AND USES THEREOF” (BIOGEN MA INC., priority 2022, published 2026).

T1 sequence (Q15125 whole entry): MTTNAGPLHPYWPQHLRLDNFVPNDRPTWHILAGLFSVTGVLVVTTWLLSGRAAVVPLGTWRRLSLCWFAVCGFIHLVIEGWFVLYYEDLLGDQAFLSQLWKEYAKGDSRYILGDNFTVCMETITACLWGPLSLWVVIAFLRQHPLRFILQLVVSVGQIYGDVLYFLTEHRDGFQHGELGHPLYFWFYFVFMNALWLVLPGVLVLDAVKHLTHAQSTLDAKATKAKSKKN

One test has as its target T1, EBP (Homo sapiens, UniProt Q15125).
T1 construct: HEK293T cells were utilized as the source of EBP enzyme; endogenous in cells; host or cells: HEK293T
Kind of test: EBP Functional Assay (EBP immunoaffinity LC-MS assay). It counts as biochemical.
Conditions: not given
On the procedure:
The EBP immunoaffinity (IA) LC-MS assay measures the potency of small molecule inhibitors of EBP by quantifying their concentration-dependent changes in the enzyme's substrate and product using liquid chromatography atmospheric pressure chemical ionization multiple reaction monitoring mass spectrometry (LC-APCI MRM MS). HEK293T cells were utilized as the source of EBP enzyme. The enzyme was incubated with the small molecule inhibitors at variable concentrations for 30 min. Deuterated form of EBP substrate, zymosterol-d5 (Avanti Polar Lipids, Cat #700068P-1 mg), was then added and the plate was incubated at 37 °C for 4 h. Finally, the sterol isomers were extracted and injected to LC-APCI MRM MS. MRM transition used for the quantification for both zymosterol and dihydrolathosterol (substrate and product of EBP enzymatic reaction, respectively) is 372.3-203.2, CE 30 and DP 80 in positive ion mode. Percent conversion of the zymosterol-d5 to dehydrolathosterol-d5 was used to derive IC50 curves. Tasin-1 (1′-[(4-Methoxyphenyl)sulfonyl]-4-methyl-1,4′-bipiperidine, CAS 792927-06-1) was used as the reference small molecule inhibitor.
Percent conversion versus the compound concentration data were fit to the following 4-parameter logistic model to generate IC50 curves: […]
`Cc1cc(C(F)(F)F)ncc1S(=O)(=O)N1CC2(CCC(N3CCOCC3)C2)C1` (centres unmarked) [Example 41, 4-(2-((4-Methyl-6-(trifluoromethyl)pyridin-3-yl)sulfonyl)-2-azaspiro[3.4]octan-6-yl)morpholine] yielded an IC50 of 0.1 to 0.5 µM.
Still for that read-out and setting: as for `Cc1nc(C(F)(F)F)ccc1S(=O)(=O)N1CC2(CC(N3CC4(COC4)C3)C2)C1` [Example 4, 6-(2-((2-Methyl-6-(trifluoromethyl)pyridin-3-yl)sulfonyl)-2-azaspiro[3.3]heptan-6-yl)-2-oxa-6-azaspiro[3.3]heptane], the figure is 0.5 to 3 µM.
Still for that read-out and setting: as for `Cc1nc(C(F)(F)F)ncc1S(=O)(=O)N1CC2(CC(N3CC4(COC4)C3)C2)C1` [Example 17, 6-(2-((4-Methyl-2-(trifluoromethyl)pyrimidin-5-yl)sulfonyl)-2-azaspiro[3.3]heptan-6-yl)-2-oxa-6-azaspiro[3.3]heptane], the figure is > 3 µM; as for `COc1ccc(S(=O)(=O)N2CC3(CC(N4CCC(C)CC4)CO3)C2)c(C)n1` (centres unmarked) [Example 56, 2-((6-Methoxy-2-methylpyridin-3-yl)sulfonyl)-7-(4-methylpiperidin-1-yl)-5-oxa-2-azaspiro[3.4]octane], < 0.1 µM; as for `Cc1nc(Cl)ccc1S(=O)(=O)N1CC2(CCC(N3CCOCC3)C2)C1` (centres unmarked) [Example 42, 4-(2-((6-Chloro-2-methylpyridin-3-yl)sulfonyl)-2-azaspiro[3.4]octan-6-yl)morpholine], < 0.1 µM.
On the same count and under the same terms, as for `Cn1nc(C(F)(F)F)cc1S(=O)(=O)N1CC2(CC(N3CC4(COC4)C3)C2)C1` [Example 14, 6-(2-((1-Methyl-3-(trifluoromethyl)-1H-pyrazol-5-yl)sulfonyl)-2-azaspiro[3.3]heptan-6-yl)-2-oxa-6-azaspiro[3.3]heptane], the figure is 0.5 to 3 µM; as for `CC(C)c1cc(S(=O)(=O)N2CC3(CC(N4CCOCC4)C3)C2)n(C)n1` [Example 19, 4-(2-((3-Isopropyl-1-methyl-1H-pyrazol-5-yl)sulfonyl)-2-azaspiro[3.3]heptan-6-yl)morpholine], < 0.1 µM.

Still in this test, the particulars now being: HEK293T cells as source of EBP enzyme; zymosterol-d5 substrate; inhibitor 30 min, then 37 °C for 4 h; percent conversion to dehydrolathosterol-d5 by LC-APCI MRM MS; read-out: EBP Functional Assay.
On to `Cc1cc(C(F)(F)F)ncc1S(=O)(=O)N1CC2(CC[C@H](N3CCOCC3)C2)C1` (single isomer, unassigned) [Example 63], for which the IC50 lay within 0.1 to 0.5 µM.
Same read-out and setting: as for `Cn1nc(C(F)(F)F)cc1S(=O)(=O)N1CC2(CC(NC3COC3)C2)C1` [Example 13, 2-((1-Methyl-3-(trifluoromethyl)-1H-pyrazol-5-yl)sulfonyl)-N-(oxetan-3-yl)-2-azaspiro[3.3]heptan-6-amine], the figure is 0.5 to 3 µM.
The same measure, in the same setting: as for `Cc1nc(C(C)(F)F)ccc1S(=O)(=O)N1CC2(CC(N(C)C3CCOCC3)C2)C1` [Example 72, 2-((6-(1,1-difluoroethyl)-2-methylpyridin-3-yl)sulfonyl)-N-methyl-N-(tetrahydro-2H-pyran-4-yl)-2-azaspiro[3.3]heptan-6-amine], the figure is < 0.1 µM.
On the same count and under the same terms, as for `Cc1nc(C(F)(F)F)ncc1S(=O)(=O)N1CC2(CC(NCC3CCOCC3)C2)C1` [Example 79, 2-((4-methyl-2-(trifluoromethyl)pyrimidin-5-yl)sulfonyl)-N-((tetrahydro-2H-pyran-4-yl)methyl)-2-azaspiro[3.3]heptan-6-amine], the figure is 0.1 to 0.5 µM; as for `CC1CCN(C2CC3(C2)CN(S(=O)(=O)c2ccc(OC(F)F)cc2)C3)CC1` [Example 20, 2-((4-(Difluoromethoxy)phenyl)sulfonyl)-6-(4-methylpiperidin-1-yl)-2-azaspiro[3.3]heptane], 0.5 to 3 µM; as for `Cc1nc(C(F)(F)F)ccc1S(=O)(=O)N1CC2(CC(NCC3(C)COC3)C2)C1` [Example 9, 2-((2-Methyl-6-(trifluoromethyl)pyridin-3-yl)sulfonyl)-N-((3-methyloxetan-3-yl)methyl)-2-azaspiro[3.3]heptan-6-amine], < 0.1 µM.
For the compound `Cc1nc(Cl)ccc1S(=O)(=O)N1CC2(CC[C@H](N3CCOCC3)C2)C1` (single isomer, unassigned) [Example 65], the IC50 was 0.1 to 0.5 µM.
The same measure, in the same setting: as for `Cc1nc(C(C)(F)F)ccc1S(=O)(=O)N1CC2(CC(NC3COC3)C2)C1` [Example 69, 2-((6-(1,1-difluoroethyl)-2-methylpyridin-3-yl)sulfonyl)-N-(oxetan-3-yl)-2-azaspiro[3.3]heptan-6-amine], the figure is 0.5 to 3 µM; as for `Cc1nc(C(C)(F)F)ccc1S(=O)(=O)N1CC2(CC(NC3CCOCC3)C2)C1` [Example 2, 2-((6-(1,1-Difluoroethyl)-2-methylpyridin-3-yl)sulfonyl)-N-(tetrahydro-2H-pyran-4-yl)-2-azaspiro[3.3]heptan-6-amine], < 0.1 µM; as for `COCCN(C)C1CCC2(C1)CN(S(=O)(=O)c1ccc(OC)nc1C)C2` (centres unmarked) [Example 32, 2-((6-Methoxy-2-methylpyridin-3-yl)sulfonyl)-N-(2-methoxyethyl)-N-methyl-2-azaspiro[3.4]octan-6-amine], < 0.1 µM.
On the same count and under the same terms, as for `Cc1nc(C(C)(F)F)ccc1S(=O)(=O)N1CC2(CC(N(C)CC3CCOCC3)C2)C1` [Example 75, 2-((6-(1,1-difluoroethyl)-2-methylpyridin-3-yl)sulfonyl)-N-methyl-N-((tetrahydro-2H-pyran-4-yl)methyl)-2-azaspiro[3.3]heptan-6-amine], the figure is 0.1 to 0.5 µM; as for `N#Cc1ccc(F)c(S(=O)(=O)N2CC3(CC(NC4CCOCC4)CO3)C2)c1` (centres unmarked) [Example 27, 4-Fluoro-3-((7-((tetrahydro-2H-pyran-4-yl)amino)-5-oxa-2-azaspiro[3.4]octan-2-yl)sulfonyl)benzonitrile], 0.5 to 3 µM; as for `N#Cc1ccc(F)c(S(=O)(=O)N2CC3(CC(NC4CCC(F)(F)CC4)CO3)C2)c1` (centres unmarked) [Example 26, 3-((7-((4,4-Difluorocyclohexyl)amino)-5-oxa-2-azaspiro[3.4]octan-2-yl)sulfonyl)-4-fluorobenzonitrile], 0.5 to 3 µM.
In the case of `Cc1nc(C(C)(F)F)ccc1S(=O)(=O)N1CC2(CC(N3CC4(COC4)C3)C2)C1` [Example 1, 6-(2-((6-(1,1-Difluoroethyl)-2-methylpyridin-3-yl)sulfonyl)-2-azaspiro[3.3]heptan-6-yl)-2-oxa-6-azaspiro[3.3]heptane], the IC50 was < 0.1 µM.
On the same count and under the same terms, as for `Cc1cnc(S(=O)(=O)N2CC3(CCC(N4CCOCC4)C3)C2)c(C)c1` (centres unmarked) [Example 29, 4-(2-((3,5-Dimethylpyridin-2-yl)sulfonyl)-2-azaspiro[3.4]octan-6-yl)morpholine], the figure is 0.5 to 3 µM; as for `CC1CCN(C2COC3(C2)CN(S(=O)(=O)c2ccc(OC(F)F)cc2)C3)CC1` (centres unmarked) [Example 54, 2-((4-(Difluoromethoxy)phenyl)sulfonyl)-7-(4-methylpiperidin-1-yl)-5-oxa-2-azaspiro[3.4]octane], 0.1 to 0.5 µM; as for `Cc1nc(C(F)(F)F)ccc1S(=O)(=O)N1CC2(CC[C@@H](N3CCOCC3)C2)C1` (single isomer, unassigned) [Example 60], < 0.1 µM.
Same read-out and setting: as for `COc1cc(S(=O)(=O)N2CC3(CCC(N4CCOCC4)C3)C2)n(C)n1` (centres unmarked) [Example 34, 4-(2-((3-Methoxy-1-methyl-1H-pyrazol-5-yl)sulfonyl)-2-azaspiro[3.4]octan-6-yl)morpholine], the figure is 0.1 to 0.5 µM; as for `COc1ccc(S(=O)(=O)N2CC3(CCC(N4CC5(COC5)C4)C3)C2)c(C)n1` (centres unmarked) [Example 30, 6-(2-((6-Methoxy-2-methylpyridin-3-yl)sulfonyl)-2-azaspiro[3.4]octan-6-yl)-2-oxa-6-azaspiro[3.3]heptane], 0.5 to 3 µM.
